Several values for one entry are separate records, joined by “and”; a condition that tells them apart may be missing. Equal entries are not always repeated.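 Exposure lasted 48 hours, with cells grown in 96-well plates and compounds tested at five concentrations. GI50: concentration for 50% inhibition of growth. The concentration for full growth arrest is given as TGI.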
Assays:
Test in all cases: inhibition of tumour cell growth, NCI panel, 48 h
ACHN renal = system: ACHN renal
CCRF-CEM leukemia = system: CCRF-CEM leukemia
HL-60(TB) leukemia = system: HL-60(TB) leukemia
HOP-92 NSCLC = system: HOP-92 NSCLC
MOLT-4 leukemia = system: MOLT-4 leukemia
NCI-H226 lung = system: NCI-H226 lung
OVCAR-3 ovarian = system: OVCAR-3 ovarian
SF-295 CNS = system: SF-295 CNS
SK-MEL-5 melanoma = system: SK-MEL-5 melanoma
SN12C renal = system: SN12C renal

| Structure (SMILES) | TGI (ACHN renal) [µM] | TGI (CCRF-CEM leukemia) [µM] | TGI (HL-60(TB) leukemia) [µM] | TGI (HOP-92 NSCLC) | TGI (MOLT-4 leukemia) [µM] | TGI (NCI-H226 lung) [µM] | TGI (OVCAR-3 ovarian) | TGI (SF-295 CNS) [µM] | TGI (SK-MEL-5 melanoma) | TGI (SN12C renal) [µM] | GI50 (ACHN renal) | GI50 (CCRF-CEM leukemia) | GI50 (HL-60(TB) leukemia) [µM] | GI50 (HOP-92 NSCLC) | GI50 (MOLT-4 leukemia) | GI50 (NCI-H226 lung) | GI50 (OVCAR-3 ovarian) | GI50 (SF-295 CNS) | GI50 (SK-MEL-5 melanoma) | GI50 (SN12C renal) |
| --- | --- | --- | --- | --- | --- | --- | --- | --- | --- | --- | --- | --- | --- | --- | --- | --- | --- | --- | --- | --- |
| CCCCCCC(C)CCCCCCCCCCC(=O)O (stereo not given) | > 100 | > 100 | > 100 | > 100 µM | > 100 | > 100 | > 100 µM | > 100 | > 100 µM | > 100 |  |  |  |  |  |  |  |  |  |  |
| COc1ccc(C2Oc3c(c(O)cc4c3[C@H](c3ccc(O)cc3O)[C@H](O)C(c3ccc(O)c(O)c3)O4)C[C@@H]2O)cc1O (stereo not given in full) | > 100 | > 100 | > 100 | > 100 µM | > 100 | > 100 | > 100 µM | > 100 | > 100 µM | > 100 |  |  |  |  |  |  |  |  |  |  |
| COc1ccc(F)c(F)c1C(=O)c1cnc(NC2CCN(S(C)(=O)=O)CC2)nc1N | > 100 | > 8.34 | 4.61 | 3.46 µM and 5.53 µM | > 100 | > 24.4 | 5.26 µM and 6.56 µM | > 100 | 4.64 µM and > 7.12 µM | > 100 | 0.439 µM and 0.272 µM | 0.431 µM and 0.237 µM | 0.0672 | 0.25 µM and 0.43 µM | 0.39 µM and 0.321 µM | 1.28 µM and 0.408 µM | 0.961 µM and 0.588 µM | 0.693 µM and 0.352 µM | 0.369 µM and 0.399 µM | 0.94 µM and 0.477 µM |
| Cc1ccc(C)c(N2C(=O)C(=O)C(c3nc4ccccc4s3)C(=Nc3cccc4c(=O)[nH][nH]c(=O)c34)C2=O)c1 (stereo not given) | > 100 | > 100 | > 100 | > 100 µM | > 100 | > 100 | > 100 µM | > 100 | > 100 µM | > 100 |  |  |  |  |  |  |  |  |  |  |
| CC1c2ccccc2N=C2SC(=S)N3CCN=C3N21 (stereo not given) | > 100 | > 100 | > 100 | > 100 µM | > 100 | > 100 | > 100 µM | > 100 | 35.8 µM | > 100 | > 100 µM | > 100 µM | > 100 | > 100 µM | > 100 µM | > 100 µM | > 100 µM | 97.8 µM | 2.25 µM | > 100 µM |
| O=C1/C(=C/c2ccc([N+](=O)[O-])cc2)COc2ccc(O)cc21 | 4.12 | 3.29 | 7.92 | > 100 µM | 37.6 | 72.4 | 11.8 µM | > 100 | 53.6 µM | 6.85 | 2.02 µM | 0.647 µM | 2.48 | 38.6 µM | 3.11 µM | 15.3 µM | 3.26 µM | > 100 µM | 12.1 µM | 2.22 µM |
| COc1ccc(-c2cnoc2-c2cc(OC)c3c(c2)OCCO3)cc1 | > 58.9 | > 100 | 0.975 | 41.7 µM | > 100 | > 94.4 | 1.55 µM | 22.3 | 0.592 µM | > 94.3 | 0.108 µM | 0.0379 µM | 0.0289 | 0.281 µM | 0.0638 µM | 0.738 µM | < 0.0172 µM | < 0.0108 µM | 0.0222 µM | 0.402 µM |
